Experimental data from patent US20080234326A1, “Novel Salts of Pantoprazole and (S) - Pantoprazole” (Altana Pharma AG, priority 2004, published 2008).

Experiment: stability as a storage form
Type: physicochemical
Conditions: statement in words, no method or data given

- formation of a stable storage form: does not form a stable storage form
SMILES: COc1ccnc(C[S+]([O-])c2nc3cc(OC(F)F)ccc3[n-]2)c1OC.[Na+] [sodium salt of (−)- or (S)-pantoprazole]
